Structures are written as SMILES.

For data set [1], the target named is T1, hA1AR (Homo sapiens, UniProt P30542).
T1 construct: host or cells: CHO cells
T1 sequence (P30542 1-326): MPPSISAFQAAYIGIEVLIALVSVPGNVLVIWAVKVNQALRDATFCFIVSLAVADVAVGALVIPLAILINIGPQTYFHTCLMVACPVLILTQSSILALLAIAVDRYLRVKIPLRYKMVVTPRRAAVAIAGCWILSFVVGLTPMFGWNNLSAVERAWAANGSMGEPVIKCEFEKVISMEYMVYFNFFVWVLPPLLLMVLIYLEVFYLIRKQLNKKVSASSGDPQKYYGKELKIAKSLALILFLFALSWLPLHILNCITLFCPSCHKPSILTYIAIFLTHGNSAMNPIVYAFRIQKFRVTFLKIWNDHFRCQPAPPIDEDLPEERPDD
As to the kind of experiment: Competition binding, [3H]DPCPX, hA1 CHO cell membranes. The note with it: displacement of [3H]DPCPX, hA1 CHO cells; mean ± SEM of four assays. The method, then:
(§1) CHO cells transfected with hA1, hA2A, hA2B and hA3 ARs (Perkin Elmer, Boston, MA, USA) were grown adherently and maintained in Dulbecco’s modified Eagle’s medium with nutrient mixture F12, containing 10% fetal calf serum, penicillin (100 U/mL), streptomycin (100 μg/mL), L-glutamine (2 mM) and geneticine (G418; 0.2 mg/mL), at 37 °C, in 5% CO2/95% air, until their use in cAMP assays. For membrane preparation, the culture medium was removed, and the cells were washed with phosphate-buffered saline and scraped off T75 flasks in ice-cold hypotonic buffer (5 mM Tris HCl, 1 mM EDTA, pH 7.4). The cell suspension was homogenized with a Polytron, centrifuged for 30 min at 40,000× g, at 4 °C, and the resulting membrane pellet was used for competition binding experiments.
(§2) All synthesized compounds were tested for their affinity to hA1, hA2A and hA3 ARs. Competition experiments to hA1AR were carried out by incubating 1 nM [^3H]-8-cyclopentyl-1,3-dipropylxanthine ([^3H]-DPCPX) with membrane suspension (50 μg of protein/100 μL) and different concentrations of the examined compounds at 25 °C for 90 min in 50 mM Tris HCl, pH 7.4. Non-specific binding was defined as binding in the presence of 1 μM DPCPX and was always <10% of the total binding. Inhibition experiments to hA2A ARs were performed by incubating the radioligand [^3H]-4-(-2-[7-amino-2-{2-furyl}{1,2,4}triazolo{2,3-a} {1,3,5}triazin-5-yl-amino]ethyl)phenol ([^3H]-ZM241385) (1 nM) with the membrane suspension (50 μg of protein/100 μL) and different concentrations of the examined compounds for 60 min, at 4 °C, in 50 mM Tris HCl (pH 7.4), 10 mM MgCl2. Non-specific binding was determined in the presence of ZM241385 (1 μM) and was about 20% of the total binding. Competition binding experiments to A3ARs were carried out by incubating the membrane suspension (50 μg of protein/100 μL) with 0.5 nM [^125I]-N6-(4-aminobenzyl)-N-methylcarboxamidoadenosine ([^125I]-ABMECA) in the presence of different concentrations of the examined compounds for an incubation time of 120 min, at 4 °C, in 50 mM Tris HCl (pH 7.4), 10 mM MgCl2, 1 mM EDTA. Non-specific binding was defined as binding in the presence of 1 μM ABMECA and was always <10% of the total binding. Bound and free radioactivity were separated by filtering the assay mixture through Whatman GF/B glass-fiber filters, using a Brandel cell harvester (Brandel Instruments, Unterföhring, Germany). The filter bound radioactivity was counted by Packard Tri Carb 2810 TR scintillation counter (Perkin Elmer).
(§3) The protein concentration was determined according to a Bio-Rad method, with bovine albumin as a standard reference. Inhibitory binding constant (Ki) values were calculated from those of IC50 according to the Cheng–Prusoff equation, Ki = IC50/(1 + [C*]/KD*), where [C*] is the concentration of the radioligand, and KD* its dissociation constant. Ki and IC50 values were calculated by non-linear regression analysis, using the equation for a sigmoid concentration-response curve (Graph-PAD Prism, San Diego, CA, USA).
In general terms: Displacement assays read how much labelled ligand stays bound in the presence of the test substance.

The target in data set [2] is T2, hA2B AR (Homo sapiens, UniProt P29275).
T2 construct: host or cells: CHO cells
T2 sequence (P29275 1-332): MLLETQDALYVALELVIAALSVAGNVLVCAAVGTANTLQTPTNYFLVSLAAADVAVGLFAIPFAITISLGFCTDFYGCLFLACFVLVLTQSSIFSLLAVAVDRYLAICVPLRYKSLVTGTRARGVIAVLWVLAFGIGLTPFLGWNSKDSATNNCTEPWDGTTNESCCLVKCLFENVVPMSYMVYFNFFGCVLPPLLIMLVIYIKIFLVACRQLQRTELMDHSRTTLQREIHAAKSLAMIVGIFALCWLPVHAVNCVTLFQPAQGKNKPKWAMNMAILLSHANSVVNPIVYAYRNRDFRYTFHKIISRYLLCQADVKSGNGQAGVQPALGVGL
As to the kind of experiment: cAMP assay in CHO cells expressing hA2B AR (stimulation of cAMP production). The data set is classed as cell-based. The note with it: for Emax at 1 µM: CHO, 1 µM compound, in comparison with NECA (1 µM = 100%), read-out: Efficacy hA2B (cAMP assay) (converted); for EC50: hA2B CHO cells, mean ± SEM of four assays. The procedure: (§4) The amino-3,5-dicyanopyridines 1–21 were tested for their affinity at hA1, hA2A and hA3 ARs, stably transfected in Chinese Hamster Ovary (CHO) cells. Moreover, they were also studied as hA2B agonists by evaluating their stimulatory effect on cAMP production in CHO cells, stably expressing the hA2B AR. […] Due to their interesting pan profile, both compounds 1 and 5 were evaluated as AR agonists also at the hA2A and hA3 subtypes.
as §1
(§5) CHO cells transfected with hAR subtypes were washed with phosphate-buffered saline, detached with tripsine and centrifuged for 10 min at 200× g. Cells were seeded in a 96-well white half-area microplate (Perkin Elmer, Boston, USA) in a stimulation buffer composed of Hank Balanced Salt Solution, 5 mM HEPES, 0.5 mM Ro 20–1724, 0.1% BSA. The cAMP levels were then quantified by using the AlphaScreen cAMP Detection Kit (Perkin Elmer, Boston, MA, USA), following the manufacturer’s instructions. At the end of the experiments, the plates were read with a Perkin Elmer EnSight Multimode Plate Reader.
(Cyclic AMP is a second messenger, typically raised through Gs and lowered through Gi signalling.)

Data set [3] has as its target T3, hA3AR (Homo sapiens, UniProt P0DMS8).
T3 construct: host or cells: CHO cells
T3 sequence (P0DMS8 1-318): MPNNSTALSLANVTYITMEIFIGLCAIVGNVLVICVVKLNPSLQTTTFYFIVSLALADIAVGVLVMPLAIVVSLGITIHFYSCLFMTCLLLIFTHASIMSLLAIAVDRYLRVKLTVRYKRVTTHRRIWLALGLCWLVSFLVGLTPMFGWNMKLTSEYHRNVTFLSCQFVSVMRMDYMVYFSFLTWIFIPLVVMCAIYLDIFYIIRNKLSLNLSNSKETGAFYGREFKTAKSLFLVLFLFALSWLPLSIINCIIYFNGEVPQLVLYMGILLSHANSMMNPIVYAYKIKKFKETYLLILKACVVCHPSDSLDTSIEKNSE
Kind of data set: Competition binding, [125I]AB-MECA, hA3 CHO cell membranes. The note with it: for inhibition at 1 µM: 1 µM compound, [125I]AB-MECA binding, read-out: I% hA3 (percentage of inhibition); for Ki: displacement of [125I]AB-MECA, hA3 CHO cells, mean ± SEM of four assays. The method, then:
as §1, §2, §3

Data set [4] concerns the target T4, hA2AAR (Homo sapiens, UniProt P29274).
T4 construct: host or cells: CHO cells
As to the kind of experiment: Competition binding, [3H]ZM241385, hA2A CHO cell membranes. To be noted: for Ki: displacement of [3H]ZM241385, hA2A CHO cells, mean ± SEM of four assays. The method, then:
as §1, §2, §3

The target in data set [5] is T1, hA1AR. As to the kind of experiment: Modulation of Forskolin-stimulated cAMP levels in hA1 CHO cells. The data set is classed as cell-based. The procedure: as §4, §1, §5

T4 sequence (P29274 whole entry): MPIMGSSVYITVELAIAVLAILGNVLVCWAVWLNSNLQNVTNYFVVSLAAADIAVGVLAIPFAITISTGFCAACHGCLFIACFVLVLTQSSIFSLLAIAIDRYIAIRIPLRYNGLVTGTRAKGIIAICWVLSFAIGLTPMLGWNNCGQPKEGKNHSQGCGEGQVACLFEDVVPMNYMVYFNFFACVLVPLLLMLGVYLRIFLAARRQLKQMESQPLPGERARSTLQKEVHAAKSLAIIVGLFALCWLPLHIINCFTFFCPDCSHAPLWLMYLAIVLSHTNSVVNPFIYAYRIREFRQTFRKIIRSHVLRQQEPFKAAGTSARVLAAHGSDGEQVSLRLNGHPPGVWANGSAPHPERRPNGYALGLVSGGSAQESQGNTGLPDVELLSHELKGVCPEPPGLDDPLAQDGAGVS

Compound `N#Cc1c(NC2CC2)nc(SCc2ncc[nH]2)c(C#N)c1-c1ccco1` [Compound 19] returned a melting point of 241 to 242 °C. The compound further displayed a Ki in data set [1] of 292 ± 26 nM. For the same compound, in data set [2], the Emax at 1 µM is 13% and the EC50 was above 1000 nM. The inhibition at 1 µM in data set [3] is 18%. In addition, the inhibition at 1 µM in data set [4] (1 µM compound, [3H]ZM241385 binding, read-out: I% hA2A (percentage of inhibition)) was 1%.

Regarding `N#Cc1c(N)nc(SCc2ncc[nH]2)c(C#N)c1-c1ccoc1` [Compound 4, 2-Amino-4-(furan-3-yl)-6-[(1H-imidazol-2-ylmethyl)sulfanyl]pyridine-3,5-dicarbonitrile], the inhibition constant (Ki) was determined as 0.77 ± 0.09 nM in data set [1], 274 ± 23 nM in data set [3] and 37 ± 3 nM in data set [4]. Further, the Emax at 1 µM in data set [2] is 42%. The response in data set [2] was half-maximal at 2.32 ± 0.21 nM (EC50).

The compound `COc1ccc(-c2c(C#N)c(N)nc(SCc3ncc[nH]3)c2C#N)cn1` [Compound 9, 2′-Amino-6′-[(1H-imidazol-2-ylmethyl)sulfanyl]-6-methoxy-3,4′-bipyridine-3′,5′-dicarbonitrile] displayed a melting point of 232 to 233 °C. The Ki in data set [1] was 2.71 ± 0.18 nM. In data set [2], the Emax at 1 µM is 7% and the EC50 was above 1000 nM. In data set [3], this compound registered a Ki of 798 ± 72 nM. Also, the affinity in data set [4], expressed as Ki, was 377 ± 32 nM.

Take `Br.N#Cc1c(N)nc(SCc2ncc[nH]2)c(C#N)c1-c1ccc(CO)o1` [Compound 2, 2-Amino-4-[5-(hydroxymethyl)furan-2-yl]-6-[(1H-imidazol-2-ylmethyl)sulfanyl]pyridine-3,5-dicarbonitrile hydrobromide]: the melting point lay in the range of 293 to 294 °C. The same compound returned a Ki in data set [1] of 190 ± 16 nM. Also, in data set [2], the Emax at 1 µM was 8% and the EC50 was above 1000 nM. In data set [3], this compound gave a Ki of 290 ± 23 nM. For the same compound, in data set [4], the Ki was 233 ± 19 nM.

As to `N#Cc1c(N)nc(SCC(=O)NCc2ncc[nH]2)c(C#N)c1-c1ccco1` [Compound 14, 2-{[6-Amino-3,5-dicyano-4-(furan-2-yl)pyridin-2-yl]sulfanyl}-N-(1H-imidazol-2-ylmethyl)acetamide], affinity in data set [1] was put at a Ki of 87 ± 7 nM. Besides, in data set [2], the Emax at 1 µM was 6% and the EC50 was above 1000 nM. For the same compound, the inhibition at 1 µM in data set [3] stood at 33%. This compound also gave a Ki in data set [4] of 817 ± 71 nM.

Regarding `Cc1ccc(-c2c(C#N)c(N)nc(SCc3ncc[nH]3)c2C#N)o1` [Compound 3, 2-Amino-6-[(1H-imidazol-2-ylmethyl)sulfanyl]-4-(5-methylfuran-2-yl)pyridine-3,5-dicarbonitrile], the Ki turned out to be 10.1 ± 0.8 nM in data set [1], 279 ± 21 nM in data set [3] and 10.5 ± 0.9 nM in data set [4]. In data set [2], the Emax at 1 µM was 1%. For the same compound, the EC50 in data set [2] is above 1000 nM.

`N#Cc1c(N)nc(SCc2ncc[nH]2)c(C#N)c1-c1ccncc1` [Compound 7, 2-Amino-6-[(1H-imidazol-2-ylmethyl)sulfanyl]-4,4′-bipyridine-3,5-dicarbonitrile]: the melting point is 230 °C (dec.). Further, the Ki in data set [1] turned out to be 8.85 ± 0.82 nM. For the same compound, in data set [2], the Emax at 1 µM was 36% and the EC50 came to 12.5 ± 1.3 nM. Also, the inhibition at 1 µM in data set [3] came out at 26%. In data set [4], this compound returned a Ki of 81 ± 7 nM.

As to `N#Cc1c(N)nc(SCc2ncc[nH]2)c(C#N)c1-c1ccc(O)nc1` [Compound 10, 2′-Amino-6-hydroxy-6′-[(1H-imidazol-2-ylmethyl)sulfanyl]-3,4′-bipyridine-3′,5′-dicarbonitrile], the Ki worked out at 149 ± 11 nM in data set [1] and 613 ± 53 nM in data set [4]. The Emax at 1 µM in data set [2] was 1%. In data set [2], this compound showed an EC50 above 1000 nM. The inhibition at 1 µM in data set [3] worked out at 23%.

As for `CC(=O)Nc1nc(SCc2ncc[nH]2)c(C#N)c(-c2ccco2)c1C#N` [Compound 21, N-{3,5-dicyano-4-(furan-2-yl)-6-[(1H-imidazol-2-ylmethyl)sulfanyl]pyridin-2-yl}acetamide], the Ki worked out at 34 ± 3 nM in data set [1], 768 ± 63 nM in data set [3] and 394 ± 27 nM in data set [4]. In data set [2], the Emax at 1 µM was 1%. This compound also registered an EC50 in data set [2] above 1000 nM.

As for `N#Cc1c(N)nc(SCc2csc(C(=O)NCCc3cnc[nH]3)n2)c(C#N)c1-c1ccco1` [Compound 17, 4-({[6-Amino-3,5-dicyano-4-(furan-2-yl)pyridin-2-yl]sulfanyl}methyl)-N-[2-(1H-imidazol-5-yl)ethyl]-1,3-thiazole-2-carboxamide], the Ki in data set [1] was found to be 33 ± 3 nM; in data set [3] it was 542 ± 48 nM; in data set [4] it was 279 ± 22 nM. Moreover, in data set [2], the Emax at 1 µM is 6%. Also, the EC50 was above 1000 nM in data set [2] and 38 ± 3 nM in data set [5] (footnote c, mean ± SEM of four experiments, read-out: hA1AR EC50 or IC50, potency to modulate Forskolin-stimulated cAMP levels). Also, the “hA1AR Efficacy” value in data set [5] (normalized: CCPA full agonist = 100%, DPCPX inverse agonist = −100%) amounted to 54 ± 4%. In addition, the “hA1AR Profile” value in data set [5] (pharmacological profile in cAMP assay) was “Partial Agonist”.

As a reminder, the Ki is a measure of affinity in units of concentration, obtained from inhibition or displacement. The low end stands for higher affinity, the high end for lower affinity. What is called EC50 is the concentration needed to bring the measured effect to its halfway point. By inhibition is commonly meant the relative decrease from the control value, in per cent. As usually defined, the melting point is the temperature of the solid-liquid transition.

The record behind these values is PMC9024521, “4-Heteroaryl Substituted Amino-3,5-Dicyanopyridines as New Adenosine Receptor Ligands: Novel Insights on Structure-Activity Relationships and Perspectives” (Pharmaceuticals, 2022).
